Test results published in patent publication US10875875B2, “Propionic acid derivatives and methods of use thereof” (Aviara Pharmaceuticals, Inc., priority 2017, dated 2020).
Where two headings read alike, the source gives them in different places.

Target: α4β1 (Homo sapiens, UniProt P05556+P13612)
Test: α4β1 integrin inhibition, IC50
Type: binding

α4β1, sequence (P13612 34-1032): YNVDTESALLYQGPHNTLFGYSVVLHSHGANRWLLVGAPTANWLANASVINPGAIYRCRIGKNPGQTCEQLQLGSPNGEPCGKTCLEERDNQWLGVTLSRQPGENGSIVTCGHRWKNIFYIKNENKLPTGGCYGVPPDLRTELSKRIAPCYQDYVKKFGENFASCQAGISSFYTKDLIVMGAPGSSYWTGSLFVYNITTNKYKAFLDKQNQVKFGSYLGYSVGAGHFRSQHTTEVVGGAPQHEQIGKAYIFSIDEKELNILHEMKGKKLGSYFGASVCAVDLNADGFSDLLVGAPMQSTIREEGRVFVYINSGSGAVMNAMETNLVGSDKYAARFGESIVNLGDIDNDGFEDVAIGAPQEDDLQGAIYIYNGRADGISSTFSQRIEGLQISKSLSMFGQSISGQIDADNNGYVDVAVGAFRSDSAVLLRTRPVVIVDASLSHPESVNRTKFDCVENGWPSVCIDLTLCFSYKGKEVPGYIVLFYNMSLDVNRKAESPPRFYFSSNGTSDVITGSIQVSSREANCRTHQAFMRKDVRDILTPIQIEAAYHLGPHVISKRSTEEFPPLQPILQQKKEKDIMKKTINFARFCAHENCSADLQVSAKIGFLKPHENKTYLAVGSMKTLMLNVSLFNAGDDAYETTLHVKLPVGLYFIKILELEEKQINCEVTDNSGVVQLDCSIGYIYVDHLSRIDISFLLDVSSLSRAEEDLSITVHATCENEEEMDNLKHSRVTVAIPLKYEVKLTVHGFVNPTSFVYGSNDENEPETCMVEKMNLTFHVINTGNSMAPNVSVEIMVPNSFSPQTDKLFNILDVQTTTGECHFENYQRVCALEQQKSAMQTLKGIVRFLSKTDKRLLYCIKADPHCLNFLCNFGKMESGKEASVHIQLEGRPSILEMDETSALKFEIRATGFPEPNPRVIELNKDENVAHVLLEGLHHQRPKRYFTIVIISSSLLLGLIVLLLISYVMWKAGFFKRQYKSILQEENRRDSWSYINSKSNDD
α4β1, sequence (P05556 21-798): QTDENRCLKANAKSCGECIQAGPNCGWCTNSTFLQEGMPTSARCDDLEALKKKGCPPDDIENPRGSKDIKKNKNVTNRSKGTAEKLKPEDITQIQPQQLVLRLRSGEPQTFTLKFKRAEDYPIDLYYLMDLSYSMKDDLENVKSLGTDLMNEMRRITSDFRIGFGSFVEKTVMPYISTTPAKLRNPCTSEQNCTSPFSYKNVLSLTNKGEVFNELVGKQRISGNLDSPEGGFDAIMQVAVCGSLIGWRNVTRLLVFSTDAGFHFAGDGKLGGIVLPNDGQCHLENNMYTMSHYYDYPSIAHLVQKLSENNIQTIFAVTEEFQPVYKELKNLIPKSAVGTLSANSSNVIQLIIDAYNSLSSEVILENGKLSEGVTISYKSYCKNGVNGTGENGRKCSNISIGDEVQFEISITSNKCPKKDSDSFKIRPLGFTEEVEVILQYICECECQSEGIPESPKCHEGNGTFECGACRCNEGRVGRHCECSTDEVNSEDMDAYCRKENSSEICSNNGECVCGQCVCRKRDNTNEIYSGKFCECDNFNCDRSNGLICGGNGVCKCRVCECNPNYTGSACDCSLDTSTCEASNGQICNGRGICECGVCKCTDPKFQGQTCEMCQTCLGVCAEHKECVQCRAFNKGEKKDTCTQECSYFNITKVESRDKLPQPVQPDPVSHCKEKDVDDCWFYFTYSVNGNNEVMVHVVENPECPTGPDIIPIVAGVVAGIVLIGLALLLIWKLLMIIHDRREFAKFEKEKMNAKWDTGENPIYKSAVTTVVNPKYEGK

Structure (SMILES) | IC50 (integrin not named at the place, read-out: IC50) [nM] | IC50 (read-out: α4β1 IC50) [nM]
Cc1cn(C)c(=O)c(NC(=O)N[C@@H](CC(=O)O)c2cccc(-c3ccccc3)c2)c1O [1-437, sodium (S)-3-(biphenyl-3-yl)-3-(3-(1,5-dimethyl-4-oxido-2-oxo-1,2-dihydropyridin-3-yl)ureido)propanoate] | < 20 | 
CCn1cc(C)c(O)c(NC(=O)N[C@@H](CC(=O)O)c2cccc(-c3ccccc3)c2)c1=O [1-438, sodium (S)-3-(biphenyl-3-yl)-3-(3-(1-ethyl-5-methyl-4-oxido-2-oxo-1,2-dihydropyridin-3-yl)ureido)propanoate] |  | < 200
CCn1cc(C)c(O)c(NC(=O)NC(CC(=O)O)c2cccc(-n3cccc(-c4ccccc4)c3=O)c2)c1=O (stereo not drawn) [1-439, sodium 3-(3-(1-ethyl-5-methyl-4-oxido-2-oxo-1,2-dihydropyridin-3-yl)ureido)-3-(3-(2-oxo-3-phenylpyridin-1(2H)-yl)phenyl)propanoate] |  | > 200
Cc1ccccc1-c1cccc([C@H](CC(=O)O)NC(=O)Nc2c(O)c(C)cn(C)c2=O)c1 [1-440, sodium (S)-3-(3-(1,5-dimethyl-4-oxido-2-oxo-1,2-dihydropyridin-3-yl)ureido)-3-(2′-methylbiphenyl-3-yl)propanoate] |  | < 200
Cc1cn(C)c(=O)c(NC(=O)N[C@@H](CC(=O)O)c2cccc(-c3ccccc3F)c2)c1O [1-441, sodium (S)-3-(3-(1,5-dimethyl-4-oxido-2-oxo-1,2-dihydropyridin-3-yl)ureido)-3-(2′-fluorobiphenyl-3-yl)propanoate] |  | < 20
Cc1cn(C)c(=O)c(NC(=O)N[C@@H](CC(=O)O)c2ccc(F)c(-c3ccccc3)c2)c1O [1-442, sodium (S)-3-(3-(1,5-dimethyl-4-oxido-2-oxo-1,2-dihydropyridin-3-yl)ureido)-3-(6-fluorobiphenyl-3-yl)propanoate] |  | < 20
CCn1cc(C)c(O)c(NC(=O)N[C@@H](CC(=O)O)c2cccc(-c3ccccc3C)c2)c1=O [1-443, sodium (S)-3-(3-(1-ethyl-5-methyl-4-oxido-2-oxo-1,2-dihydropyridin-3-yl)ureido)-3-(2′-methylbiphenyl-3-yl)propanoate] |  | < 200
CCn1cc(C)c(O)c(NC(=O)N[C@@H](CC(=O)O)c2cccc(-c3ccc(C)cc3)c2)c1=O [1-444, sodium (S)-3-(3-(1-ethyl-5-methyl-4-oxido-2-oxo-1,2-dihydropyridin-3-yl)ureido)-3-(4′-methylbiphenyl-3-yl)propanoate] |  | < 200
Cc1cn(C)c(=O)c(NC(=O)NC(CC(=O)O)c2cccc(-n3cccc3)c2)c1O (stereo not drawn) [1-445, sodium 3-(3-(1H-pyrrol-1-yl)phenyl)-3-(3-(1,5-dimethyl-4-oxido-2-oxo-1,2-dihydropyridin-3-yl)ureido)propanoate] |  | < 200
Cc1cn(C)c(=O)c(NC(=O)N[C@@H](CC(=O)O)c2cccc(-c3ccc(F)cc3F)c2)c1O [1-446, sodium (S)-3-(2′,4′-difluorobiphenyl-3-yl)-3-(3-(1,5-dimethyl-4-oxido-2-oxo-1,2-dihydropyridin-3-yl)ureido)propanoate] |  | < 20
Cc1cn(C)c(=O)c(NC(=O)N[C@@H](CC(=O)O)c2cccc(-c3cc(F)ccc3F)c2)c1O [1-447, sodium (S)-3-(2′,5′-difluorobiphenyl-3-yl)-3-(3-(1,5-dimethyl-4-oxido-2-oxo-1,2-di hydropyridin-3-yl)ureido)propanoate] |  | < 20
Cc1ccc([C@H](CC(=O)O)NC(=O)Nc2c(O)c(C)cn(C)c2=O)cc1-c1ccccc1 [1-448, sodium (S)-3-(3-(1,5-dimethyl-4-oxido-2-oxo-1,2-dihydropyridin-3-yl)ureido)-3-(6-methylbiphenyl-3-yl)propanoate] |  | < 200
COc1ccc([C@H](CC(=O)O)NC(=O)Nc2c(O)c(C)cn(C)c2=O)cc1-c1ccccc1 [1-449, sodium (S)-3-(3-(1,5-dimethyl-4-oxido-2-oxo-1,2-dihydropyridin-3-yl)ureido)-3-(6-methoxybiphenyl-3-yl)propanoate] |  | < 200
Cc1ccc(-c2cccc([C@H](CC(=O)O)NC(=O)Nc3c(O)c(C)cn(C)c3=O)c2)cc1 [1-450, sodium (S)-3-(3-(1,5-dimethyl-4-oxido-2-oxo-1,2-dihydropyridin-3-yl)ureido)-3-(4′-methylbiphenyl-3-yl)propanoate] |  | < 200
Cc1cccc(-c2cccc([C@H](CC(=O)O)NC(=O)Nc3c(O)c(C)cn(C)c3=O)c2)c1 [1-451, sodium (S)-3-(3-(1,5-dimethyl-4-oxido-2-oxo-1,2-dihydropyridin-3-yl)ureido)-3-(3′-methylbiphenyl-3-yl)propanoate] |  | < 200
Cc1cn(C)c(=O)c(NC(=O)N[C@@H](CC(=O)O)c2cccc(-c3cccnc3)c2)c1O [1-452, sodium (S)-3-(3-(1,5-dimethyl-4-oxido-2-oxo-1,2-dihydropyridin-3-yl)ureido)-3-(3-(pyridin-3-yl)phenyl)propanoate] |  | < 200
Cc1cn(C)c(=O)c(NC(=O)N[C@@H](CC(=O)O)c2cccc(-c3cc(F)cc(F)c3)c2)c1O [1-453, sodium (S)-3-(3′,5′-difluorobiphenyl-3-yl)-3-(3-(1,5-dimethyl-4-oxido-2-oxo-1,2-di hydropyridin-3-yl)ureido)propanoate] |  | < 20

Structure (SMILES) | IC50 (integrin not named at the place, read-out: IC50) [nM] | IC50 (read-out: α4β1 IC50) [nM]
Cc1cc(C)cc(-c2cccc([C@H](CC(=O)O)NC(=O)Nc3c(O)c(C)cn(C)c3=O)c2)c1 [1-454, sodium (S)-3-(3-(1,5-dimethyl-4-oxido-2-oxo-1,2-dihydropyridin-3-yl)ureido)-3-(3′,5′-dimethylbiphenyl-3-yl)propanoate] |  | < 200
COc1ccccc1-c1cccc([C@H](CC(=O)O)NC(=O)Nc2c(O)c(C)cn(C)c2=O)c1 [1-456, sodium (S)-3-(3-(1,5-dimethyl-4-oxido-2-oxo-1,2-dihydropyridin-3-yl)ureido)-3-(2′-methoxybiphenyl-3-yl)propanoate] |  | < 200
Cc1cn(C)c(=O)c(NC(=O)N[C@@H](CC(=O)O)c2cccc(-c3ccc(F)c(F)c3)c2)c1O [1-458, sodium (S)-3-(3′,4′-difluorobiphenyl-3-yl)-3-(3-(1,5-dimethyl-4-oxido-2-oxo-1,2-di hydropyridin-3-yl)ureido)propanoate] |  | < 20
Cc1ccc(C)c(-c2cccc([C@H](CC(=O)O)NC(=O)Nc3c(O)c(C)cn(C)c3=O)c2)c1 [1-459, sodium (S)-3-(3-(1,5-dimethyl-4-oxido-2-oxo-1,2-dihydropyridin-3-yl)ureido)-3-(2′,5′-dimethylbiphenyl-3-yl)propanoate] |  | < 20
COc1cccc(-c2cccc([C@H](CC(=O)O)NC(=O)Nc3c(O)c(C)cn(C)c3=O)c2)c1 [1-460, sodium (S)-3-(3-(1,5-dimethyl-4-oxido-2-oxo-1,2-dihydropyridin-3-yl)ureido)-3-(3′-methoxybiphenyl-3-yl)propanoate] |  | < 200
Cc1cccc(-c2cccc([C@H](CC(=O)O)NC(=O)Nc3c(O)c(C)cn(C)c3=O)c2)c1C [1-462, sodium (S)-3-(3-(1,5-dimethyl-4-oxido-2-oxo-1,2-dihydropyridin-3-yl)ureido)-3-(2′,3′-dimethylbiphenyl-3-yl)propanoate] |  | < 200
Cc1cn(C)c(=O)c(NC(=O)NC(CC(=O)O)c2ccc(=O)n(-c3ccccc3)c2)c1O (stereo not drawn) [1-463, sodium 3-(3-(1,5-dimethyl-4-oxido-2-oxo-1,2-dihydropyridin-3-yl)ureido)-3-(6-oxo-1-phenyl-1,6-dihydropyridin-3-yl)propanoate] |  | < 200
Cc1cn(C)c(=O)c(NC(=O)N[C@@H](CC(=O)O)c2cccc(-c3c(F)cccc3F)c2)c1O [1-464, sodium (S)-3-(2′,6′-difluorobiphenyl-3-yl)-3-(3-(1,5-dimethyl-4-oxido-2-oxo-1,2-di hydropyridin-3-yl)ureido)propanoate] |  | < 20
Cc1cn(C)c(=O)c(NC(=O)N[C@@H](CC(=O)O)c2cccc(-c3cccc(F)c3)c2)c1O [1-465, sodium (S)-3-(3-(1,5-dimethyl-4-oxido-2-oxo-1,2-dihydropyridin-3-yl)ureido)-3-(3′-fluorobiphenyl-3-yl)propanoate] |  | < 20
Cc1cn(C)c(=O)c(NC(=O)N[C@@H](CC(=O)O)c2cccc(-c3ccc(F)cc3)c2)c1O [1-466, sodium (S)-3-(3-(1,5-dimethyl-4-oxido-2-oxo-1,2-dihydropyridin-3-yl)ureido)-3-(4′-fluorobiphenyl-3-yl)propanoate] |  | < 20
Cc1cn(C)c(=O)c(NC(=O)N[C@@H](CC(=O)O)c2cccc(-c3ccccc3OC(F)(F)F)c2)c1O [1-467, sodium (S)-3-(3-(1,5-dimethyl-4-oxido-2-oxo-1,2-dihydropyridin-3-yl)ureido)-3-(2′-(trifluoromethoxy)biphenyl-3-yl)propanoate] |  | < 200
COc1ccc(-c2cccc([C@H](CC(=O)O)NC(=O)Nc3c(O)c(C)cn(C)c3=O)c2)c(OC)c1 [1-468, sodium (S)-3-(2′,4′-dimethoxybiphenyl-3-yl)-3-(3-(1,5-dimethyl-4-oxido-2-oxo-1,2-dihydropyridin-3-yl)ureido)propanoate] |  | < 200
COc1ccc(-c2cccc([C@H](CC(=O)O)NC(=O)Nc3c(O)c(C)cn(C)c3=O)c2)cc1OC [1-469, sodium (S)-3-(3′,4′-dimethoxybiphenyl-3-yl)-3-(3-(1,5-dimethyl-4-oxido-2-oxo-1,2-dihydropyridin-3-yl)ureido)propanoate] |  | < 20
Cc1cn(C)c(=O)c(NC(=O)NC(CC(=O)O)c2cccc(-c3ccc(Cl)cc3)c2)c1O (stereo not drawn) [1-471, sodium 3-(4′-chlorobiphenyl-3-yl)-3-(3-(1,5-dimethyl-4-oxido-2-oxo-1,2-dihydropyridin-3-yl)ureido)propanoate] |  | < 200
Cc1cn(C)c(=O)c(NC(=O)NC(CC(=O)O)c2cccc(-c3cccc(Cl)c3)c2)c1O (stereo not drawn) [1-472, sodium 3-(3′-chlorobiphenyl-3-yl)-3-(3-(1,5-dimethyl-4-oxido-2-oxo-1,2-dihydropyridin-3-yl)ureido)propanoate] |  | < 200
Cc1cn(C)c(=O)c(NC(=O)NC(CC(=O)O)c2cccc(-c3ccccc3Cl)c2)c1O (stereo not drawn) [1-473, sodium 3-(2′-chlorobiphenyl-3-yl)-3-(3-(1,5-dimethyl-4-oxido-2-oxo-1,2-dihydropyridin-3-yl)ureido)propanoate] |  | < 20
